Data on six molecules can be found in patent US20260242395A1, “AMINOHETEROARYL KINASE INHIBITORS” (ALLORION THERAPEUTICS INC, priority 2022, published 2026).

What all share (assay type): biochemical
The target of one assay is T1, CDK4/CyclinD1 (Homo sapiens, UniProt P11802).
T1 construct: purchased ProQinase 0142-0143-1
In words: CDK4/CyclinD1 kinase inhibitory activity (Caliper mobility shift). Particulars: enzyme 20 nM, ATP 672 uM, 28° C. 30 min; read-out: CDK4/Cyclin D1 IC50. An outline of the steps: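 Recombinant CDK4/Cyclin D1 (20 nM final) preincubated 10 min at room temperature with compound in HEPES pH 7.5 buffer with MgCl2, DTT and Triton X-100. Reaction started with 3000 nM FAM-labelled peptide and 672 uM ATP, run 30 min at 28° C, stopped with EDTA. Mobility-shift % conversion gave % inhibition, and IC50 came from dose-response fits.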

Another assay has as its target T2, CDK2/CyclinE1 (Homo sapiens, UniProt P24941).
T2 construct: purchased Carna 04-165
In words: CDK2/CyclinE1 kinase inhibitory activity (Caliper mobility shift). Particulars: enzyme 3 nM, ATP 77 μM, 28° C. 30 min; read-out: CDK2/Cyclin E1 IC50. The protocol: CDK2/CyclinE1 kinase inhibitory activity (IC50): 5 μl of various dilutions of test compounds in 1×kinase buffer (50 mM HEPES pH 7.5, 10 mM MgCl2, 2 mM DTT and […] Brij-35) were mixed with 10 μL of CDK2/CyclinE1 (Carna, 04-165 #, final concentration 3 nM in 1×Kinase buffer) in 384 plates and incubated at room temperature for 10 min. To initiate each reaction, 10 μL of peptide solution containing fluorescently-labeled-peptide 18(5-FAM-QSPKKG-CONH2) (GL, 114202 #, final concentration 3000 nM) and ATP (final concentration 77 μM) in 1×Kinase buffer was added to each of the wells containing test compound and CDK2/CyclinE1 mixture. The reaction was then allowed to proceed at 28° C. for 30 min and terminated by the addition of 25 μL stop buffer (100 mM HEPES pH 7.5, 50 mM EDTA, 0.2% Coating Reagent #3 (Perkin Elmer, 760050 #) and 0.015% Brij-35).
(§1) Following the kinase reaction, Caliper EZ reader II (Downstream voltages: −500V, Upstream voltages: −2250V, Base pressure −0.5 PSI, Screen pressure −1.2 PSI) was used to separate the phosphorylated (product) and the unphosphorylated (substrate) fluorescently-labeled peptide 18 based on their different mobility. Both substrate and product were measured and the ratio of these values were used to generate % conversion by Caliper EZ reader II. These conversion values were then transformed into % inhibition of kinase activity using the formula: % Inhibition=[(MA−X)/(MA−MI)]×100% where MA=conversion value of DMSO only controls, MI=conversion value of no enzyme controls and X=conversion value at any given compound dose. IC50 values were then calculated by plotting dose-response curves and then using the XLfit application in Excel software.

For another assay, the target named is T3, CDK9/CyclinT1 (Homo sapiens, UniProt P50750).
T3 construct: purchased Millipore 14-685M
Nature of the assay: CDK9/CyclinT1 kinase inhibitory activity (Caliper mobility shift). Particulars: enzyme 12.5 nM, ATP 10M, 28° C. 30 min; read-out: CDK9/Cyclin T1 IC50. The protocol:
CDK9/CyclinT1 kinase inhibitory activity (IC50): 5 μl of various dilutions of test compound in 1× kinase buffer (20 mM HEPES, pH 7.5, 10 mM MgCl2, 2 mM DTT and 0.01% Triton X-100) was mixed with 10 μL of CDK9/CyclinT1 (Millipore, 14-685M #, final concentration 12.5 nM in 1× Kinase buffer) in 384 plates and incubated at room temperature for 10 min. To initiate each reaction, 10 μL of peptide solution containing fluorescently-labeled -peptide CTD3 (5-FAM-[…], GL, SY346885 #, final concentration 3000 nM) and ATP (final concentration […]) in 1× Kinase buffer was added to each of the wells containing test compound and CDK9/CyclinT1 mixture. The reaction is then allowed to proceed at 28° C. for 30 min and terminated by the addition of 25 μL stop buffer (100 mM HEPES pH 7.5, 50 mM EDTA, 0.2% Coating Reagent #3 (Perkin Elmer, 760050 #) and 0.015% Brij-35).
as §1, with “CTD3” for “18”

T1 sequence (P11802 whole entry): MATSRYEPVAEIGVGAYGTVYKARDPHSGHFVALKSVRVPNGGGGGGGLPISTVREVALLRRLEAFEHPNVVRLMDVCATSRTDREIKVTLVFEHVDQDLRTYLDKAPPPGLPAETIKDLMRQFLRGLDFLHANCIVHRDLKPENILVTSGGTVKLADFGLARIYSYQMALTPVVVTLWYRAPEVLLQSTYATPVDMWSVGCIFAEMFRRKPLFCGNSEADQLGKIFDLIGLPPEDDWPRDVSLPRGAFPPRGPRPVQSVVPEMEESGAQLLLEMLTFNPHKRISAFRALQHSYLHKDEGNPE
T1 sequence (P24385 whole entry partner): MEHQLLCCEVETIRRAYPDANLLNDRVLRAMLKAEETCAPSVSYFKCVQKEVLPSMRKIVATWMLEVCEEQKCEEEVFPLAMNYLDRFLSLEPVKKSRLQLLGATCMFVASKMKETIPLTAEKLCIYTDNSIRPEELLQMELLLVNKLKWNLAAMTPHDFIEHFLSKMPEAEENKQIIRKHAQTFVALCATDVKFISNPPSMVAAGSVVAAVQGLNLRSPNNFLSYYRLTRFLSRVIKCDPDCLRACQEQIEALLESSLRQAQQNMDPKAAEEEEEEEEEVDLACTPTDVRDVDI
T3 sequence (P50750 whole entry): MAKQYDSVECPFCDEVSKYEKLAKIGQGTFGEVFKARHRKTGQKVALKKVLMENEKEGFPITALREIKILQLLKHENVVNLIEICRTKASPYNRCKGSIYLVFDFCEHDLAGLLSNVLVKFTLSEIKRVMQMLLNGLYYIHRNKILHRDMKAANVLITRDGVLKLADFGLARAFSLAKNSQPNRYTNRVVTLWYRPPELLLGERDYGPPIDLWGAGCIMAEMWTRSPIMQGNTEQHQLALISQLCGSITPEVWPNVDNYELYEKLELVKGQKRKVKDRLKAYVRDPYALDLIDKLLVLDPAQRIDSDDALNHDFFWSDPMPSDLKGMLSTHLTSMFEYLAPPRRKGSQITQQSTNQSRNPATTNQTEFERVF
T3 sequence (O60563 whole entry partner): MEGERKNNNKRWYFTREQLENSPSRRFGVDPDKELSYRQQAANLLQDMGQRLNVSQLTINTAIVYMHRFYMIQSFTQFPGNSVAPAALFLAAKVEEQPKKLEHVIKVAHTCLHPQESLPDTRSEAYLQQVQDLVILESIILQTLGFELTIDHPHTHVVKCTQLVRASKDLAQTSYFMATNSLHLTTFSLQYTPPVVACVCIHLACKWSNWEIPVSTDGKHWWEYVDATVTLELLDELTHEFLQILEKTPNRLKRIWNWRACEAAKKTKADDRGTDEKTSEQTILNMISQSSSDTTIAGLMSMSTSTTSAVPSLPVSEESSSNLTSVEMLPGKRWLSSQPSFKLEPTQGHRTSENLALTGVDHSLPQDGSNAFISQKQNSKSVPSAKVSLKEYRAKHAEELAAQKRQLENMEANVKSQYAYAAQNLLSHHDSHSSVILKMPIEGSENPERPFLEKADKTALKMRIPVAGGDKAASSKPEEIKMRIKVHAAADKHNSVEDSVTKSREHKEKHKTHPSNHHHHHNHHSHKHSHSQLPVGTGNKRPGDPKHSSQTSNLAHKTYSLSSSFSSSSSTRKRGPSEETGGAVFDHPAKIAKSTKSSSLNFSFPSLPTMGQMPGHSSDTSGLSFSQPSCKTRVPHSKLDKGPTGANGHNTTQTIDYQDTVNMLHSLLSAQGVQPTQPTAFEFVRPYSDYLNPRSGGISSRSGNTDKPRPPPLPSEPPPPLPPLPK

Regarding `Cc1c(C(C)(C)O)cnc2c(C)cc(-c3nc(N[C@@H]4CCOC[C@H]4O)ncc3Cl)cc12` [Example 58], the IC50 on CDK4/CyclinD1 was under 10 nM; at CDK2/CyclinE1, at least 1000 nM; on CDK9/CyclinT1, at least 1000 nM.

In the case of `[2H]c1nc2c(F)cc(-c3nc(N[C@@H]4CCOC[C@H]4O)ncc3C)cc2c2c1CC1(CC1)NC2` [Example 67], the results for the IC50 on CDK4/CyclinD1, on CDK2/CyclinE1 and at CDK9/CyclinT1 were 10 to 100 nM, at least 1000 nM and 100 to 1000 nM, respectively.

For the molecule `CC1(C)Cc2cnc3c(F)cc(-c4ccnc(N[C@@H]5CCOC[C@H]5O)n4)cc3c2CN1` [Example 107], the figures for the IC50 at CDK4/CyclinD1, at CDK2/CyclinE1 and at CDK9/CyclinT1 were under 10 nM, 100 to 1000 nM and 100 to 1000 nM, respectively.

With `O[C@@H]1COCC[C@H]1Nc1ncc(Cl)c(-c2cc(F)c3ncc4c(c3c2)CCNC4)n1` [Example 8, (3S,4R)-4-((5-chloro-4-(7-fluoro-1,2,3,4-tetrahydrobenzo[c][2,7]naphthyridin-9-yl)pyrimidin-2-yl)amino)tetrahydro-2H-pyran-3-ol], the IC50 is under 10 nM on CDK4/CyclinD1, under 10 nM on CDK2/CyclinE1 and 10 to 100 nM at CDK9/CyclinT1.

Consider `CC1(C)Cc2cnc3c(F)cc(-c4nc(N[C@@H]5CCOC[C@H]5O)ncc4F)cc3c2CN1` [Example 24, (3S,4R)-4-((5-fluoro-4-(7-fluoro-3,3-dimethyl-1,2,3,4-tetrahydrobenzo[c][2,6]naphthyridin-9-yl)pyrimidin-2-yl)amino)tetrahydro-2H-pyran-3-ol], for which the IC50 on CDK4/CyclinD1 is under 10 nM; at CDK2/CyclinE1 it was 10 to 100 nM; on CDK9/CyclinT1, 10 to 100 nM.

Consider `CC1(C)Cc2cnc3c(F)cc(-c4nc(N[C@@H]5CCOC[C@H]5O)ncc4C#N)cc3c2CN1` [Example 49], for which the IC50 at CDK4/CyclinD1 was under 10 nM; on CDK2/CyclinE1, 100 to 1000 nM; at CDK9/CyclinT1, 100 to 1000 nM.
